Laboratory results taken from US20250099420A1, “SMALL MOLECULE MODULATORS OF GPR139 COMPLEX” (University of Florida Research Foundation, Incorporated, priority 2022, published 2025).
Where two headings read alike, the source gives them in different places.

Legend:
GPR139 = biological target: T1, GPR139 (Homo sapiens, UniProt Q6DWJ6); assay: GPR139 Agonist titration / agonist counterscreen assay (calcium detection, HEK-GPR139 cells); assay type: cell-based; design: expressed in transfected cells; host or cells: HEK Aequorin cells, Maxcyte transient transfection; conditions: GPR139 Agonist Activity; for EC50: read-out: EC50; for Averaged Max % Response (±St. Dev.): activity relative to known control
T1 sequence (Q6DWJ6 1-353): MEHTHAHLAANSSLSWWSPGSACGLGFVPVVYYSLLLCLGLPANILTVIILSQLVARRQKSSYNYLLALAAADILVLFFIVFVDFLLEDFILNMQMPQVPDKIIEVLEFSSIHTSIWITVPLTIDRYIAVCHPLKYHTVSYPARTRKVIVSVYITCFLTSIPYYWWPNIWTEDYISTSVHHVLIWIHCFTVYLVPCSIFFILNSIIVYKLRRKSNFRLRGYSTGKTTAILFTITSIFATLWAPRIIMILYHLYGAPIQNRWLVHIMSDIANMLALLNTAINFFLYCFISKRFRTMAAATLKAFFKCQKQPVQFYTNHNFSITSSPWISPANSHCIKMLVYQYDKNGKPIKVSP
Procedure: GPR activity was assessed using a calcium detection assay. […] Negative control samples were treated with DMSO. […] Intracellular calcium was measured using Calcium 5.

parental HEK cells = assay: HEK parental Agonist Counterscreen Assay (non-transfected cells); assay type: cell-based; conditions: for Averaged Max % Response (±St. Dev.): activity relative to known control
Excerpt: The high control for the agonist counterscreen was Forskolin not acetylcholine.

[1] = HEK Agonist Activity section of Table 4 (parental HEK counterscreen)
[2] = values printed in E-notation without unit
[3] = Homo sapiens, HEK293, HEK Agonist Activity section of Table 4 (parental HEK counterscreen)
[4] = Homo sapiens, HEK293, HEK Agonist Activity, parental non-transfected HEK cells

Row | Compound | Efficiency Ligand (GPR139) | Hill Slope (GPR139) | Lipophilic Efficiency (logD) (GPR139) | Lipophilic Efficiency (logP) (GPR139) | EC50 (GPR139; HEK-GPR139 cells) [nM] | Averaged Max % Response (±St. Dev.) (GPR139) [%] | Lipophilic Efficiency (logD) (parental HEK cells; HEK Agonist Activity section) | Lipophilic Efficiency (logP) (parental HEK cells; HEK Agonist Activity section) | EC50 (parental HEK cells; [1]) [nM] | Averaged Max % Response (±St. Dev.) (parental HEK cells; HEK Agonist Activity section) [%] | Lipophilic Efficiency (logD) (GPR139; based on logD) | Lipophilic Efficiency (logP) (GPR139; based on logP) | Hill Slope (GPR139; fitted dose-response curve) | Efficiency Ligand (GPR139; ligand efficiency) | EC50 (GPR139; [2]) [nM] | EC50 (parental HEK cells; [3]) [nM] | further results
1 | COc1ccc(CSc2nnc(-c3cccnc3)n2N)cc1 [SR-01000284323] | 0.41 | 0.57 | 4.90 | 4.90 | 386 | 94.97 ± 7.83 | 3.34 | 3.34 | > 14100 | 3.28 ± 6.64 |  |  |  |  |  |  | 
2 | Cc1ccc(SCC(=O)NNC(=O)c2cccs2)cc1 [SR-01000286062] |  |  |  |  |  | 99.20 ± 4.08 | 2.20 | 2.20 | > 14100 | 8.31 ± 5.73 | 4.23 | 4.23 | 0.78 | 0.48 | 132 |  | 
3 | O=C(CSc1ccc(Cl)cc1)NNC(=O)c1ccc([N+](=O)[O-])cc1 [SR-01000286858] | 0.38 | 0.60 | 3.68 | 3.67 | 366 | 111.41 ± 5.44 | 2.09 | 2.08 |  | 4.98 ± 9.07 |  |  |  |  |  | > 14100 | 
4 | O=c1cc(-c2ccccc2)[nH]c2nc(OCc3cccc([N+](=O)[O-])c3)nn12 [SR-01000289377] | 0.32 | 1.25 | 3.01 | 3.01 | 727 | 79.17 ± 5.74 | 1.72 | 1.72 |  | −0.70 ± 7.45 |  |  |  |  |  | > 14100 | 
5 | O=C(CSCc1ccc(Cl)cc1Cl)NNC(=O)c1ccccc1 [SR-01000295701] |  |  |  |  |  | 126.44 ± 4.55 |  |  |  |  | 5.48 | 5.47 |  | 0.56 | < 0.716 |  | Lipophilic Efficiency (logD) (parental HEK cells; HEK Agonist Activity): 1.19; Lipophilic Efficiency (logP) (parental HEK cells; HEK Agonist Activity): 1.17; Averaged Max % Response (±St. Dev.) (parental HEK cells; HEK Agonist Activity): −4.01 ± 2.60%; EC50 (parental HEK cells; HEK Agonist Activity, parental non-transfected HEK cells): > 14100 nM
6 | O=C(CSCc1cccc2ccccc12)Nc1c[nH]c(=O)[nH]c1=O [SR-01000296110] | 0.35 | 1.48 | 4.77 | 4.76 | 857 | 96.78 ± 9.37 | 3.56 | 3.55 | > 14100 | 3.41 ± 3.54 |  |  |  |  |  |  | 
7 | Cc1c(Br)c([N+](=O)[O-])nn1CC(=O)NCCc1ccc(Cl)cc1 [SR-01000298170] |  |  |  |  |  | 119.00 ± 5.31 |  |  |  |  | 4.08 | 4.08 | 0.27 | 0.46 | 31.6 |  | Lipophilic Efficiency (logD) (parental HEK cells; HEK Agonist Activity): 1.44; Lipophilic Efficiency (logP) (parental HEK cells; HEK Agonist Activity): 1.44; Averaged Max % Response (±St. Dev.) (parental HEK cells; HEK Agonist Activity): 10.66 ± 2.50%; EC50 (parental HEK cells; [4]): > 14100 nM
8 | Cc1ccc(NC(=O)NCCCc2ccccc2)cc1 [SR-01000299370] | 0.38 | 0.74 | 1.36 | 1.36 | 3700 | 68.10 ± 8.73 | 0.78 | 0.78 |  | −5.05 ± 8.64 |  |  |  |  |  | > 14100 | 
9 | C=C(CCC)c1ccc(CCC2=NNC(c3ccccc3)N2C)cc1 (stereo not drawn) [SR-01000299610] | 0.33 | 0.79 | 3.88 | 3.88 |  | 71.34 ± 19.37 | 2.82 | 2.82 |  | −12.89 ± 6.99 |  |  |  |  |  | > 14100 | 
10 | O=C(Cn1ccc([N+](=O)[O-])n1)NCCc1ccc(Cl)cc1 [SR-01000299915] |  |  |  |  |  | 99.72 ± 18.10 |  |  |  |  | 5.86 | 5.86 | 1.13 | 0.55 | 5 |  | Lipophilic Efficiency (logD) (parental HEK cells; HEK Agonist Activity): 2.40; Lipophilic Efficiency (logP) (parental HEK cells; HEK Agonist Activity): 2.40; Averaged Max % Response (±St. Dev.) (parental HEK cells; HEK Agonist Activity): 2.39 ± 2.18%; EC50 (parental HEK cells; [4]): > 14100 nM
11 | Cc1cc(C)c2c(CC(=O)NNC(=O)COc3ccccc3)coc2c1 [SR-01000301649] |  |  |  |  |  | 93.20 ± 6.78 | 1.94 | 1.93 | > 14100 | 14.38 ± 10.96 | 3.92 | 3.92 | 0.91 | 0.37 | 145 |  | 
12 | Cc1ccc(NC(=O)NNC(=O)COc2ccc(Cl)cc2)c(C)c1 [SR-01000309617] |  |  |  |  |  | 94.36 ± 3.49 | 1.74 | 1.67 |  | −3.26 ± 4.40 | 3.88 | 3.82 | 0.63 | 0.41 |  | > 14400 | 
13 | CC1=NNC(=O)C1CC(=O)N/N=C/c1c(Cl)cccc1Cl (stereo not drawn) [SR-01000310664] | 0.41 | 0.70 | 4.32 | 4.32 | 672 | 89.42 ± 11.78 | 3.00 | 3.00 | > 14100 | 28.78 ± 5.42 |  |  |  |  |  |  | 
14 | NC1=NC(=O)/C(=C\c2ccc(Cl)cc2Cl)S1 [SR-01000310833] | 0.56 | 0.71 | 3.32 | 3.32 | 407 | 80.08 ± 5.83 | 1.78 | 1.78 | > 14100 | 13.95 ± 0.93 |  |  |  |  |  |  | 
15 | COc1ccc(CC(=O)NNC(=O)C(C)Oc2ccc(Cl)cc2Cl)cc1OC (stereo not drawn) [SR-01000312779] | 0.30 | 1.91 | 2.77 | 2.74 | 1200 | 81.17 ± 17.61 | 1.69 | 1.66 |  | 13.34 ± 1.65 |  |  |  |  |  | > 14100 | 
